The record followed here is PMC5597684, “Prediction and in vitro verification of potential CTL epitopes conserved among PRRSV-2 strains” (Immunogenetics, 2017).

Ends that are not written are not given here.

The first assay concerns the target T1, SLA-1*04:01 (Sus scrofa, UniProt O19244). The assay can be described thus: pSLA binding affinity, modified ELISA. More on the design: species or system swine. As to conditions: ELISA as above, only one successful affinity measurement, read-out: Aff. (nM), measured affinity (equilibrium dissociation constant). The method, then:
(§1) Five SLA class I alleles were used: SLA-1*04:01, SLA-1*07:02, SLA-2*04:01, SLA-2*05:02 and SLA-3*04:01.
(§2) Based on the bioinformatics described above, 53 peptides (purity >85%, GenScript) were acquired for in vitro verification.
(§3) Binding affinity of pSLA complexes was determined in vitro using a modified enzyme-linked immunosorbent assay (ELISA) (Sylvester-Hvid et al. [2002]; Pedersen et al. [2011]). Briefly, 1–2 nM denatured biotinylated recombinant SLA heavy chains were refolded with 15 nM human β2m (hβ2m) and eight fivefold incremental concentrations of the peptide to be tested spanning from 0 to 13 μM. Following obtained equilibrium after two nights of incubation at RT, the samples were transferred to a streptavidin coated 96-well capture plate (436014, Thermo Scientific) for 1½ h of incubation. Mouse-anti-hβ2m, BBM1, and horseradish peroxidase-conjugated goat-anti-mouse IgG (A9917, Sigma-Aldrich) were used as primary and secondary detection antibodies, respectively. Washing steps were performed with 0.05% Tween 20 in PBS. The color reaction of TMB Plus2 (4395A, Kem-En-Tec Diagnostics) was stopped with equivalent amounts of H2SO4 (0.5 M, cat 30144.294, VWR International), and the plates were read at 450–650 nm using a Multiskan EX ELISA reader (Thermo). OD values were converted to measures of affinity (equilibrium dissociation constant, K D) using the prefolded biotinylated […]/HLA-A*02:01 as standard (Kast et al. [1994]), and were again converted to percentile rank scores by the same SLA-specific standard curves that are integrated in NetMHCpan. A minimum of two reliable measurements were aspired for each pSLA combination, and in most cases this was obtained. The results are presented as the range between the minimum and maximum measurements converted to rank scores.
(In general: ELISA stands for enzyme-linked immunosorbent assay.)
Take ALATAPDGTY [ID46]: the Kd came out at 607 nM.

Take FTWYQLASY [ID13]: the Kd worked out at 92 nM.

On to LSASSQTEY [ID38], for which the Kd amounted to 91 nM.

Regarding MVNTTRVTY [ID29], the Kd is 206 nM. Still for that read-out and setting: the figure for RTILGTNNF [ID1] is 1030 nM; for YSFPGPPFF [ID4] it is 37 nM.

Staying with this assay, now noted: ELISA, 1–2 nM heavy chain, 15 nM hβ2m, peptide 0 to 13 μM, two nights at RT, average of successful measurements, read-out: Aff. (nM), measured affinity (average equilibrium dissociation constant).
As for ASDWFAPRY [ID25], the Kd came out at 2 nM. For the sequence KVAHNLGFY [ID21], the Kd came to 4 nM.

Regarding KVAHNLGFYF [ID10], the Kd came out at 122 nM.

Regarding LSDSGRISY [ID19], the Kd stood at 10 nM. Same read-out and setting: then NISAVFQTYY [ID23], with 413 nM.

Regarding QVYERGCRWY [ID7], the Kd amounted to 682 nM. For RTAIGTPVY [ID17], the Kd was found to be 57 nM.

Turning to RTAPNEIAF [ID24], the Kd was determined as 4 nM.

In the case of TTMPSGFELY [ID43], the Kd was 576 nM.

The next assay deals with T2, SLA-2*04:01 (Sus scrofa, UniProt Q8MHU4). The assay can be described thus: pSLA binding affinity, modified ELISA. More on the design: species or system swine. As to conditions: ELISA as above, only one successful affinity measurement, read-out: Aff. (nM), measured affinity (equilibrium dissociation constant). The method, then: as §1, §2, §3
On to ATQEWLSRMW [ID31], for which the Kd was 50000 nM. Take KIFRFGSHKW [ID22]: the Kd came to 9 nM.

Consider LSDSGRISY [ID19], for which the Kd worked out at 4180 nM.

On to QVYERGCRWY [ID7], for which the Kd worked out at 209 nM. In the case of RTAIGTPVY [ID17], the Kd is 385 nM. As to SSEGHLTSVY [ID34], the Kd worked out at 1690 nM. For the sequence TTMPSGFELY [ID43], the Kd amounted to 1840 nM.

Staying with this assay, now noted: ELISA, 1–2 nM heavy chain, 15 nM hβ2m, peptide 0 to 13 μM, two nights at RT, average of successful measurements, read-out: Aff. (nM), measured affinity (average equilibrium dissociation constant).
For ASYVWVPLTW [ID20], the Kd stood at 17100 nM. Turning to FTWYQLASY [ID13], the Kd was 2 nM. FVLSWLTPW [ID28]: the Kd worked out at 3 nM. The same measure, in the same setting: then GGNWFHLEW [ID8], with 16600 nM. In the case of LSFSYTAQF [ID12], the Kd came out at 73 nM. For the sequence LTAALNRNRW [ID36], the Kd is 40 nM.

For the sequence MSWRYSCTRY [ID44], the Kd was determined as 15 nM. Still for that read-out and setting: then NISAVFQTYY [ID23], with 862 nM; and WGVYSAIETW [ID48], with 21400 nM. For YAQHMVLSY [ID2], the Kd was determined as 60 nM.

In a further assay the test system is SLA-1*07:02. Kind of assay: pSLA complex stability, scintillation proximity assay (125I-β2m dissociation). In kind it is binding, swine. The note with it: SPA, 125I-β2m dissociation at 37 °C over 24 h with 200 nM unlabeled β2m, refolded overnight 18 °C with ≈50 μM peptide, average of duplicates, t½ in decimal hours. As to the method: as §1, §2
(§4) The stability of the pSLA complexes was determined in vitro using a scintillation proximity assay (SPA) employing the principle of ^125I-radiolabeled β2m dissociation as a measure of pSLA complex stability (Harndahl et al. [2011]; Parker et al. [1992b]). Briefly, denatured biotinylated recombinant SLA heavy chains were diluted in PBS/0.1% Lutrol F68 to 50 nM and refolded overnight at 18 °C with 2–10 nM ^125I-radiolabeled β2m and ≈50 μM of the peptide to be tested in streptavidin-coated scintillation 384-well FlashPlate PLUS microplates (SMP410A001PK, PerkinElmer). In case of a binding peptide, a scintillation signal was observed and the off-rate was subsequently determined by increasing the temperature to 37 °C and the addition of an excess of unlabeled β2m (final concentration 200 nM) while continuously monitoring the scintillation signal in a liquid microplate scintillation plate reader (Topcount NXT, PerkinElmer) for 24 h at 37 °C. The off-rate is equivalent to the peptide-specific dissociation rate and serves as a good measure for pSLA complex stability. The stability values reported are the averages of duplicates in half-life (t½) decimal hours.
Consider TLSNYRRSY [ID15], for which the “Stab. (h), measured stability (average dissociation half-life)” value (from here on “Stab. (h), measured stability”) is given as 0.3 h.

In a further assay the target is T1, SLA-1*04:01. Described as above. In kind it is binding, swine. The note with it: SPA, 125I-β2m dissociation at 37 °C over 24 h with 200 nM unlabeled β2m, refolded overnight 18 °C with ≈50 μM peptide, average of duplicates, t½ in decimal hours. The method, then: as §1, §2, §4
Regarding KSGHPHGLLF [ID6], the “Stab. (h), measured stability” value came out at 0.1 h. Regarding RSTPAIVRWF [ID3], the “Stab. (h), measured stability” value was determined as 0.1 h.

In the next assay the target is T2, SLA-2*04:01. The description is as above. The class given is binding, swine. As to conditions: SPA, 125I-β2m dissociation at 37 °C over 24 h with 200 nM unlabeled β2m, refolded overnight 18 °C with ≈50 μM peptide, average of duplicates, t½ in decimal hours. As to the method:
as §1, §2, §4
As to SSAFFLRYF [ID45], the “Stab. (h), measured stability” value came to 0.1 h.
